# What was measured:
# [1] = target: T1, AF9 YEATS domain (Homo sapiens, UniProt P42568); assay: NMR chemical shift perturbation titration of 15N-labeled AF9 YEATS domain; assay type: binding; settings: for Kd: from dose-dependent chemical shift perturbations, ± fitting error; for LE: ligand efficiency, Table 1
# T1 construct: DNA fragment encoding AF9 YEATS domain (residues 1–138) was amplified and cloned into the pET28a vector; made in house; host or cells: Escherichia coli BL21 (DE3)
# T1 sequence (P42568 1-138): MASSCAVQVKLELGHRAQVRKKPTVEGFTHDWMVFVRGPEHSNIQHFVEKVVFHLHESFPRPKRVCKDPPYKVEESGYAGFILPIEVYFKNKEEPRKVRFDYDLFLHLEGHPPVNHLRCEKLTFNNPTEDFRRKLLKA
# Excerpt: (§1) To further validate the results of ligand-observed fragment-based screening, we titrated these hits with the ^15N-labeled AF9 YEATS domain (Figure 1B). The backbone chemical shift assignment was retrieved from the literature. […] These residues were then mapped to the surface of the crystal structure of the AF9 YEATS domain in complex with H3K9ac (PDB code: 4TMP), which indicated the binding of these hits to the same pocket for acyl-lysine recognition (Figure 1D). The binding affinity of hit 2 was then determined by best fitting the dose-dependent CSPs of these residues (Figure 1E) at 0.07 ± 0.01 mM (fitting error was used henceforth unless specifically annotated). The affinity of hit 2 was further validated using isothermal titration calorimetry (ITC) (Figure 1F). The binding affinity of the other hits was determined using the same approach (Table 1). These four hits probably bound to the same pocket since they shared the same pharmacophore.
# The ^15N-labeled AF9 YEATS domain was concentrated to 0.1 mM in phosphate buffered saline at pH 6.8. The HSQC spectra were acquired on the Agilent 500 MHz spectrometer at a ligand/protein molar ratio varying from 0 to 8.0. The dissociation constant Kd was best-fitted using the following equation assuming a 1:1 binding mode, Δδobs=ΔδmaxPt+Lt+Kd−Pt+Lt+Kd^2−4PtLt/2Pt where Pt and Lt represented the total concentrations of the protein and the ligand, respectively, and the Δδobs denoted the observed chemical shift changes relative to the free-form protein. Δδobs was defined as 1/2δH2+0.04δN2 , where δH and δN were the chemical shift changes in the ^1H and ^15N dimension, respectively. The maximum of the chemical shift perturbations Δδmax and the dissociation constant Kd were best-fitted from the dose-dependent chemical shift changes
# [2] = target: T1, AF9 YEATS domain; assay: Isothermal titration calorimetry with AF9 YEATS domain; assay type: binding
# Excerpt: as §1
# All ITC titrations were carried out on a MicroCal ITC200 calorimeter (Malvern Instruments Ltd., Malvern, UK) at 298K. The AF9 YEATS domain protein was dialyzed to 20 mM Tris buffer containing 150 mM NaCl at pH 7.4. The concentration of the protein was determined by UV-Vis spectroscopy. The compounds were dried and dissolved in the same buffer. The concentrations of compounds were determined using quantitative NMR30. The ITC data were analyzed using Origin 2019 and best-fitted to the one-site binding model to determine the enthalpies and affinity constants. The binding entropies were calculated using the Gibbs free energy equation.
# [3] = target: T2, ENL YEATS domain (Homo sapiens, UniProt Q03111); assay: NMR chemical shift perturbation titration of ENL YEATS; assay type: binding; settings: determined by CSPs, read-out: affinity
# T2 construct: determined from the dose-dependent chemical shift perturbations of ENL YEATS
# T2 sequence (Q03111 1-138 limits assumed): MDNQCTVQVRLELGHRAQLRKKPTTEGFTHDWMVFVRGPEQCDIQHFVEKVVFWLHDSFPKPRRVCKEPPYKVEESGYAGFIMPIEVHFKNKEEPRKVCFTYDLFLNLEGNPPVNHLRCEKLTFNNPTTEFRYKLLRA
# Method: (§2) It is, therefore, difficult to achieve a high selectivity between AF9 and ENL YEATS domains, as underscored by the similar affinity of compound 10 to both AF9 and ENL (38 ± 6 μM) determined by CSPs (Figure 4C), even though compound 10 represented a new chemotype with a binding mode distinct from that of SGC-iMLLT (Figure 4B). […] Therefore, compound 10 was a dual inhibitor of AF9/ENL YEATS domains.
# (§3) Figure 4 Selectivity analysis of AF9 inhibitors among human YEATS domains and antiproliferation activities. (A) Sequence alignment of human YEATS domains. Conserved residues are highlighted, with residues interacting with H3K9ac annotated. (B) Superimposition of AF9 and ENL YEATS domain structures in complex with 10 (carbon atom in magenta) and SGC-iMLLT (PDB code: 6HT1), respectively. The hydrogen bonds are delineated by dashed lines. (C) The binding affinity of 10 determined from the dose-dependent chemical shift perturbations of ENL YEATS. The Kd value with the fitting error is annotated. (D) Chemical shift perturbations of the ^15N-labeled YEATS2 YEATS domain induced by 10. (E) The binding affinity of 10 estimated from best fitting of the dose-dependent chemical shift perturbations of the YEATS2 YEATS domain. (F) Viability of MCF7 and AF9-sensitive HGC-27 cells upon treatment with inhibitors at a single dose of 100 μM. […]
# [4] = target: T3, YEATS2 YEATS domain (Homo sapiens, UniProt Q9ULM3); assay: NMR chemical shift perturbation titration of 15N-labeled YEATS2 YEATS domain; assay type: binding
# T3 construct: Chemical shift perturbations of the ^15N-labeled YEATS2 YEATS domain induced by 10
# T3 sequence (Q9ULM3 200-345 limits assumed): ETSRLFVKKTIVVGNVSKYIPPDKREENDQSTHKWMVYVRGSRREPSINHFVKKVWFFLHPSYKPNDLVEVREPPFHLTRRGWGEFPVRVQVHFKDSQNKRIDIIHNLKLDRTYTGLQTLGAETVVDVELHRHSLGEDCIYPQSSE
# Method: as §2, §3
# [5] = system: NCL-H1975 cells; assay: Cell viability, NCL-H1975; assay type: cell-based; settings: single dose of 100 μM; AF9-sensitive cell line
# [6] = system: MCF7 cells; assay: Cell Counting Kit-8 (CCK-8) cell viability assay, MCF7; settings: single dose of 100 μM
# Method: (§4) We further assessed the cellular activity of these inhibitors in cancer cells.
# (§5) Human MCF7 and HGC-27 cell lines were cultured at 37 °C in a humidified 5% CO2 atmosphere in DMEM (Gibco, Stony Plain, AB, Canada) medium supplemented with 10% fetal bovine serum (FBS) (Gibco) and 1 × penicillin/streptomycin (Gibco). MCF7 and HGC-27 cells were seeded in 96-well plates with approximately 10^4 cells in 100 μL of the medium and treated with the following conditions: fresh culture medium with DMSO (control) or fresh culture medium with inhibitors at a concentration of 100 μM. Cell viability was measured using a Cell Counting Kit-8 (Purchased from TargetMol, Boston, MA, USA) according to manufacturer’s instructions [45]. The absorbance was read at 450 nm with a microplate reader (CLARIOstar, BMG LABTECH, Ortenberg, Germany). Cell viability was calculated as the ratio of experimental group absorbance vs. control group absorbance.
# [7] = system: HGC-27 cells; assay: Cell Counting Kit-8 (CCK-8) cell viability assay, HGC-27; settings: AF9-sensitive HGC-27 cells
# Method: as §4, §5
# [8] = system: MCF7; parameters: method as in PMID 30288907; settings: cited from earlier work
# [9] = system: the rest of the 59 cell lines; parameters: method as in PMID 30288907; settings: cited from earlier work
SMILES,Kd [1],LE [1],also measured
COCC(=O)Nc1ccc(C)c(N)c1 [Compound 1],137 ± 24 µM,0.38,–
COCC(=O)Nc1ccc(Cl)c(N)c1 [Compound 2],70 ± 10 µM,0.41,"ΔH ([2]; ITC binding enthalpy): -10 ± 2 kcal/mol; Kd ([2]; ITC, 1:1 binding mode, 298K): 76 ± 10 µM; -TΔS ([2]; ITC, entropy calculated using the Gibbs free energy equation): 4 kcal/mol"
COCC(=O)Nc1ccc(N)cc1Cl [Compound 3],100 ± 10 µM,0.39,–
COCC(=O)Nc1ccc(N)cc1C [Compound 4],440 ± 100 µM,0.33,–
COCC(=O)Nc1ccc(Cl)cc1 [Compound 5],80 ± 60 µM,0.43,change of affinity (in words) ([1]; relative to hit 2): did not significantly alter the affinity
COCC(=O)Nc1ccc(Cl)c(O)c1 [Compound 6],61 ± 4 µM,0.41,change of affinity (in words) ([1]; relative to hit 2): did not significantly alter the affinity
CNC(=O)Cc1ccc(NC(=O)COC)cc1 [Compound 7],270 ± 20 µM,0.29,–
COCC(=O)Nc1ccc(CNC(C)=O)cc1 [Compound 8],310 ± 4 µM,–,–
CNCC(=O)Nc1ccc(CNC(C)=O)cc1 [Compound 9],660 ± 70 µM,0.26,–
C[C@H]1CCCN1Cc1nc2cc(NC(=O)c3ccc4c(cnn4C)c3)ccc2[nH]1 [SGC-iMLLT],–,–,potency in MCF7 (in words) [8]: weak potency; activities over the rest of the 59 cell lines (in words) [9]: almost no detectable activities

# More lines, main results first:
Kd [1],LE [1],SMILES,also measured
38 ± 6 µM,–,O=C(COCc1ccccc1)Nc1ccc(Cl)cc1 [Compound 10],enhancement of the affinity for the AF9 YEATS domain ([1]; relative to hit 2): approximately two-fold enhancement; Kd [3]: 38 ± 6 µM; binding affinity (in words) ([4]; chemical shift of YEATS2 only slightly disturbed): very weak binding affinity; Kd ([4]; estimated from best fitting of dose-dependent chemical shift perturbations): > 200 µM; effect on NCL-H1975 cells (in words) [5]: demonstrated inhibitory effects; potency in MCF7 cells (in words) [6]: weak potency; proliferation of HGC-27 cells (in words) [7]: suppressed the proliferation of AF9-sensitive HGC-27 cells more effectively in a dose-dependent manner
88 ± 30 µM,0.31,O=C(COc1ccccc1)Nc1ccc(Cl)cc1 [Compound 11],–
87 ± 11 µM,0.28,O=C(COCc1ccc(F)cc1)Nc1ccc(Cl)cc1 [Compound 12],–
70 ± 9 µM,0.28,O=C(COCc1ccccc1O)Nc1ccc(Cl)cc1 [Compound 13],–
26 ± 4 µM,0.30,O=C(COCc1ccccc1)Nc1c(F)cc(Cl)cc1F [Compound 14],affinity enhancement relative to that of 10 ([1]; AF9 YEATS): approximately 30%
